Experimental data: ChEMBL document CHEMBL5107949, “Design, synthesis, and antibacterial activity of N-(trifluoromethyl)phenyl substituted pyrazole derivatives” (RSC Med Chem, 2021)
In brackets after ≈: the same amount, converted by molar mass. Activity calls are given as the source filed them. The rule behind the calls is not given here.

How the values were obtained:
Staphylococcus aureus [1] = test: Inhibition of DNA synthesis in Staphylococcus aureus ATCC 29213 at 1 times MIC preincubated for 30 mins followed by [3H]-thymidine and measured after 30 mins by [3H]-thymidine incorporation based beta scintillation counter analysis; assay type: functional; conditions: time 60 min; 1 h
Enterococcus faecium [2] = test: Antibacterial activity against Enterococcus faecium clinical isolate 1088168 assessed as inhibition of bacterial growth by CLSI protocol based broth microdilution method; assay type: functional
Enterococcus faecalis [3] = test: Antibacterial activity against Enterococcus faecalis clinical isolate 1091563 assessed as inhibition of bacterial growth by CLSI protocol based broth microdilution method; assay type: functional
Staphylococcus aureus [4] = test: Inhibition of protein synthesis in Staphylococcus aureus ATCC 29213 at 0.25 times MIC preincubated for 30 mins followed by [3H]-leucine and measured after 40 mins by [3H]-leucine incorporation based beta scintillation counter analysis; assay type: functional; conditions: time 70.0 min
Staphylococcus aureus [5] = test: Antibacterial activity against Staphylococcus aureus clinical isolate 1088626 assessed as inhibition of bacterial growth by CLSI protocol based broth microdilution method; assay type: functional
Staphylococcus aureus [6] = test: Inhibition of DNA synthesis in Staphylococcus aureus ATCC 29213 at 0.5 times MIC preincubated for 30 mins followed by [3H]-thymidine and measured after 30 mins by [3H]-thymidine incorporation based beta scintillation counter analysis; assay type: functional; conditions: time 60 min; 1 h
Staphylococcus aureus [7] = test: Antibacterial activity against Staphylococcus aureus clinical isolate 1088610 assessed as inhibition of bacterial growth by CLSI protocol based broth microdilution method; assay type: functional
Enterococcus faecalis [8] = test: Inhibition of biofilm formation in Enterococcus faecalis ATCC 29212 at 6.25 ug/ml incubated for 24 hrs by Calgary biofilm device assay; assay type: functional; conditions: dose 6.25 µg/ml
Enterococcus faecalis [9] = test: Antibacterial activity against Enterococcus faecalis clinical isolate 1094112 assessed as inhibition of bacterial growth by CLSI protocol based broth microdilution method; assay type: functional
Staphylococcus aureus [10] = test: Bactericidal activity against Staphylococcus aureus ATCC 700699 persisters assessed as log reduction in colony forming unit at 2 to 32 times MIC measured for 4 hrs by time kill assay; assay type: functional, organism-based; conditions: DDE = dose-dependent effect
Staphylococcus aureus [11] = test: Antibacterial activity against antibiotic resistant Staphylococcus aureus ATCC 700699 assessed as inhibition of bacterial growth by CLSI protocol based broth microdilution method; assay type: functional
Staphylococcus aureus [12] = test: Inhibition of lipid synthesis in Staphylococcus aureus ATCC 29213 at 0.25 times MIC preincubated for 30 mins followed by [3H]-glycerol and measured after 50 mins by [3H]-glycerol incorporation based beta scintillation counter analysis; assay type: functional; conditions: time 80 min; 1.333 h
Staphylococcus aureus [13] = test: Inhibition of lipid synthesis in Staphylococcus aureus ATCC 29213 at 0.5 times MIC preincubated for 30 mins followed by [3H]-glycerol and measured after 50 mins by [3H]-glycerol incorporation based beta scintillation counter analysis; assay type: functional; conditions: time 80 min; 1.333 h
Staphylococcus aureus [14] = test: Antibacterial activity against Staphylococcus aureus clinical isolate 1088060 assessed as inhibition of bacterial growth by CLSI protocol based broth microdilution method; assay type: functional
Enterococcus faecium [15] = test: Antibacterial activity against Enterococcus faecium clinical isolate 1088925 assessed as inhibition of bacterial growth by CLSI protocol based broth microdilution method; assay type: functional
Enterococcus faecalis [16] = test: Anti-biofilm activity against Enterococcus faecalis ATCC 29212 assessed as eradication of biofilm formation incubated for 24 hrs by Calgary biofilm device assay; assay type: functional
Enterococcus faecalis [17] = test: Anti-biofilm activity against Enterococcus faecalis ATCC 29212 assessed as minimum bactericidal concentration incubated for 24 hrs by Calgary biofilm device assay; conditions: ATCC 29212, 24 h
Enterococcus faecalis [18] = test: Anti-biofilm activity against Enterococcus faecalis ATCC 29212 assessed as biofilm eradication at 3.125 to 12.5 ug/ml incubated for 24 hrs by Calgary biofilm device assay; assay type: functional, organism-based; conditions: dose 3.125-12.5 µg/ml
Enterococcus faecium [19] = test: Antibacterial activity against Enterococcus faecium clinical isolate 1088228 assessed as inhibition of bacterial growth by CLSI protocol based broth microdilution method; assay type: functional
Enterococcus faecalis [20] = test: Inhibition of biofilm formation in Enterococcus faecalis ATCC 29212 at 12.5 ug/ml incubated for 24 hrs by Calgary biofilm device assay; assay type: functional; conditions: dose 12.5 µg/ml
Staphylococcus aureus [21] = test: Antibacterial activity against Staphylococcus aureus clinical isolate 1088888 assessed as inhibition of bacterial growth by CLSI protocol based broth microdilution method; assay type: functional
Staphylococcus aureus [22] = test: Inhibition of RNA synthesis in Staphylococcus aureus ATCC 29213 at 0.5 times MIC preincubated for 30 mins followed by [3H]-uridine and measured after 30 mins by [3H]-uridine incorporation based beta scintillation counter analysis; assay type: functional; conditions: time 60 min; 1 h
Staphylococcus aureus [23] = test: Bactericidal activity against Staphylococcus aureus ATCC 700699 persisters assessed as log reduction in colony forming unit at 32 times MIC measured for 4 hrs by time kill assay; assay type: functional
[24] = Cytotoxicity against human HEK293 cells reduction in cell viability incubated for 24 hrs by resazurin cell viability assay; assay type: toxicity, cell-based
Staphylococcus aureus [25] = test: Antibacterial activity against antibiotic resistant Staphylococcus aureus ATCC 33591 assessed as inhibition of bacterial growth by CLSI protocol based broth microdilution method; assay type: functional
Staphylococcus aureus [26] = test: Antibacterial activity against antibiotic susceptible Staphylococcus aureus ATCC 25923 assessed as inhibition of bacterial growth by CLSI protocol based broth microdilution method; assay type: functional
Staphylococcus aureus [27] = test: Inhibition of RNA synthesis in Staphylococcus aureus ATCC 29213 at 0.25 times MIC preincubated for 30 mins followed by [3H]-uridine and measured after 30 mins by [3H]-uridine incorporation based beta scintillation counter analysis; assay type: functional; conditions: time 60 min; 1 h
Staphylococcus aureus [28] = test: Inhibition of lipid synthesis in Staphylococcus aureus ATCC 29213 at MIC preincubated for 30 mins followed by [3H]-glycerol and measured after 50 mins by [3H]-glycerol incorporation based beta scintillation counter analysis; assay type: functional; conditions: time 80 min; 1.333 h
Enterococcus faecalis [29] = test: Antibacterial activity against Enterococcus faecalis clinical isolate 1088051 assessed as inhibition of bacterial growth by CLSI protocol based broth microdilution method; assay type: functional
Staphylococcus aureus [30] = test: Antibacterial activity against Staphylococcus aureus clinical isolate 1089106 assessed as inhibition of bacterial growth by CLSI protocol based broth microdilution method; assay type: functional
Enterococcus faecalis [31] = test: Antibacterial activity against Enterococcus faecalis clinical isolate 1091720 assessed as inhibition of bacterial growth by CLSI protocol based broth microdilution method; assay type: functional
Staphylococcus aureus [32] = test: Antibacterial activity against Staphylococcus aureus clinical isolate 1088105 assessed as inhibition of bacterial growth by CLSI protocol based broth microdilution method; assay type: functional
Enterococcus faecium [33] = test: Antibacterial activity against Enterococcus faecium clinical isolate 1089544 assessed as inhibition of bacterial growth by CLSI protocol based broth microdilution method; assay type: functional
[34] = test system: Staphylococcus epidermidis; test: Antibacterial activity against antibiotic resistant Staphylococcus epidermidis ATCC 700296 assessed as inhibition of bacterial growth by CLSI protocol based broth microdilution method; assay type: functional
Staphylococcus aureus [35] = test: Inhibition of DNA synthesis in Staphylococcus aureus ATCC 29213 at 0.25 times MIC preincubated for 30 mins followed by [3H]-thymidine and measured after 30 mins by [3H]-thymidine incorporation based beta scintillation counter analysis; assay type: functional; conditions: time 60 min; 1 h
Staphylococcus aureus [36] = test: Bactericidal activity against Staphylococcus aureus ATCC 700699 assessed as bacteria elimination at 4 times MIC and measured after 6 hrs by time-kill assay; assay type: functional
Staphylococcus aureus [37] = test: Bactericidal activity against Staphylococcus aureus ATCC 700699 persisters assessed as log reduction in colony forming unit at 16 times MIC measured for 4 hrs by time kill assay; assay type: functional

## O=C(O)c1ccc(-c2nn(-c3ccc(C(F)(F)F)cc3)cc2CNc2ccc(Br)c(C(F)(F)F)c2)cc1
Staphylococcus aureus [1]
  inhibition (INH): 76%
Enterococcus faecium [2]
  MIC: 4 µg/mL (≈ 6.85 µM)
Enterococcus faecalis [3]
  MIC: 8 µg/mL (≈ 13.7 µM)
Staphylococcus aureus [4]
  inhibition: 55.4%
Staphylococcus aureus [5]
  MIC: 4 µg/mL (≈ 6.85 µM)
Staphylococcus aureus [6]
  inhibition (INH): 43.6%
Staphylococcus aureus [7]
  MIC: 4 µg/mL (≈ 6.85 µM)
Enterococcus faecalis [8]
  inhibition: Active
Enterococcus faecalis [9]
  MIC: 8 µg/mL (≈ 13.7 µM)
Staphylococcus aureus [10]
  Activity: Dde
Staphylococcus aureus [11]
  MIC: 0.78 µg/mL (≈ 1.33 µM)
Staphylococcus aureus [12]
  inhibition (INH): 55.4%
Staphylococcus aureus [13]
  inhibition (INH): 57%
Staphylococcus aureus [14]
  MIC: 4 µg/mL (≈ 6.85 µM)
Enterococcus faecium [15]
  MIC: 8 µg/mL (≈ 13.7 µM)
Enterococcus faecalis [16]
  MBEC: 6.25 µg/mL
Enterococcus faecalis [17]
  MBC: 6.25 µg/mL (≈ 10.7 µM)
Enterococcus faecalis [18]
  Activity: Active
Enterococcus faecium [19]
  MIC: 8 µg/mL (≈ 13.7 µM)
Enterococcus faecalis [20]
  inhibition: Active
Staphylococcus aureus [21]
  MIC: 8 µg/mL (≈ 13.7 µM)
Staphylococcus aureus [22]
  inhibition (INH): 38.1%
Staphylococcus aureus [23]
  log(activity): 5
[24]
  IC50 at 24 h: > 12 µg/mL
Staphylococcus aureus [25]
  MIC: 1.56 µg/mL (≈ 2.67 µM)
Staphylococcus aureus [26]
  MIC: 0.78 µg/mL (≈ 1.33 µM)
Staphylococcus aureus [27]
  inhibition (INH): 14.1%
Staphylococcus aureus [28]
  inhibition (INH): 88.3%
Enterococcus faecalis [29]
  MIC: 4 µg/mL (≈ 6.85 µM)
Staphylococcus aureus [30]
  MIC: 4 µg/mL (≈ 6.85 µM)
Enterococcus faecalis [31]
  MIC: 8 µg/mL (≈ 13.7 µM)
Staphylococcus aureus [32]
  MIC: 4 µg/mL (≈ 6.85 µM)
Enterococcus faecium [33]
  MIC: 8 µg/mL (≈ 13.7 µM)
[34]
  MIC: 1.56 µg/mL (≈ 2.67 µM)
Staphylococcus aureus [35]
  inhibition (INH): 44%
Staphylococcus aureus [36]
  Activity: >99.9%
Staphylococcus aureus [37]
  log(activity): 3
